Laboratory results published in US11759455B2, “Substituted 1H-imidazo[4,5-b]pyridin-2(3H)-ones and their use as GLUN2B receptor modulators” (JANSSEN PHARMACEUTICA NV, priority 2016, dated 2023).
Read-outs that look alike come from different tables or passages of the source.

Biological target: T1, human GluN1/GluN2B NMDA receptors (Homo sapiens, UniProt Q05586+Q13224)
T1 construct: expressed in transfected cells
Experiment: Cell-based calcium flux (FLIPR) assay on cloned human NR1/NR2B ion channels expressed in mammalian cells (standard and HTS buffer variants);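 also: stable Tet-On inducible cell line, Ca2+ influx triggered by glutamate at about EC40 plus 10 µM glycine, fluorescent dye read-out over 5 min, normalized to control wells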

[1] = standard assay buffer (0.5 mM MgCl2 in dye loading buffer; 137 mM NaCl, 4 mM KCl in assay buffer), human GluN1/GluN2B, read-out: NR2B IC50 (μM) standard assay
[2] = standard assay buffer (0.5 mM MgCl2 dye loading; 137 mM NaCl, 4 mM KCl assay buffer), human GluN1/GluN2B cells, read-out: NR2B IC50 (μM) standard assay

T1 sequence (Q13224 27-1484, other chains not shown): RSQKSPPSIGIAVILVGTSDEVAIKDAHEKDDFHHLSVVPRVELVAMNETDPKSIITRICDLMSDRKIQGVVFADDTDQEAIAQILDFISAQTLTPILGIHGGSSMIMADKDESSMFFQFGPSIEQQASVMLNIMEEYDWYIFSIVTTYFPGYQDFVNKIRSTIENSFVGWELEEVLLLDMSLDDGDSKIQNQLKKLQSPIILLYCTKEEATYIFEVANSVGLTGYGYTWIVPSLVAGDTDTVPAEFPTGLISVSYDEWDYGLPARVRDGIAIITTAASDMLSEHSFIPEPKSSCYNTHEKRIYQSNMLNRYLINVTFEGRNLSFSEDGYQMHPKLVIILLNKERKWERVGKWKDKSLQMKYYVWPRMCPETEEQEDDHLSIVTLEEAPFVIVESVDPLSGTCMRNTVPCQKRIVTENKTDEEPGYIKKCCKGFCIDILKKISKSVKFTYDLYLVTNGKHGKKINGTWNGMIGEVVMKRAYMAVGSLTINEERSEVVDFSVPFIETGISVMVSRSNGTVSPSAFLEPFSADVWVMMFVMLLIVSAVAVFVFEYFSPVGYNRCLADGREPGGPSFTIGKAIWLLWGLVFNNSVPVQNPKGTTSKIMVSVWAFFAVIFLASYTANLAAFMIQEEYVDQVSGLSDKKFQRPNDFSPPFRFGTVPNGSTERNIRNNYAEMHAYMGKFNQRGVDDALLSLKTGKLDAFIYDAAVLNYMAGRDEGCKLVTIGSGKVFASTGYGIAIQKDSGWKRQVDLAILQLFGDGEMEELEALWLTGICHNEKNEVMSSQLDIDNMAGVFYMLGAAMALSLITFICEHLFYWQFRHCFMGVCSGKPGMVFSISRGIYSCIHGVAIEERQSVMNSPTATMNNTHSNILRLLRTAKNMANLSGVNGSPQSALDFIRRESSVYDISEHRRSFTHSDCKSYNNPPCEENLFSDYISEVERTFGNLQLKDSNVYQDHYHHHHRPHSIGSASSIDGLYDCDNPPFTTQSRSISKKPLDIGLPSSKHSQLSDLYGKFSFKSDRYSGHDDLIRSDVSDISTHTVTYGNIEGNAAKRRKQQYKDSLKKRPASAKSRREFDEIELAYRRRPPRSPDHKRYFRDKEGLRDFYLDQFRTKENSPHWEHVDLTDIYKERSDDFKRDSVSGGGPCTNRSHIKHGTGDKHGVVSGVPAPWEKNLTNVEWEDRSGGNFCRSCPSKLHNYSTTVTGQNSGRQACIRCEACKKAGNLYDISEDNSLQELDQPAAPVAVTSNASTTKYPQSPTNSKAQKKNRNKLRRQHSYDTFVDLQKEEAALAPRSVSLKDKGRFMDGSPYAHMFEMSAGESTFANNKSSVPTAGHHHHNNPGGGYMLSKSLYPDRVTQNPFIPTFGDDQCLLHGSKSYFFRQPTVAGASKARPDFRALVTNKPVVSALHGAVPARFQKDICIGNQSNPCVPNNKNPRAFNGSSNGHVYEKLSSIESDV

Row | Compound | IC50 [1] [µM] | IC50 [2] [µM] | further results
1 | Cc1cc(-c2cnc3c(c2)n(CC2CCO2)c(=O)n3C)ccc1F (racemic) [Example 395, (R/S)-6-(4-Fluoro-3-methyl-phenyl)-3-methyl-1-(oxetan-2-ylmethyl)imidazo[4,5-b]pyridin-2-one] | 1.2 |  | 
2 | Cn1c(=O)n(CC(=O)N2CC(F)C2)c2cc(-c3csc(C(F)(F)F)c3)cnc21 [Example 102, 1-[2-(3-Fluoroazetidin-1-yl)-2-oxo-ethyl]-3-methyl-6-[5-(trifluoromethyl)-3-thienyl]imidazo[4,5-b]pyridin-2-one] |  | 0.018 | 
3 | O=c1[nH]c2ncc(-c3cccc(C(F)(F)F)c3)cc2n1CC1CNCCO1 (racemic) [Example 217, (R/S)-1-(Morpholin-2-ylmethyl)-6-[3-(trifluoromethyl)phenyl]-3H-imidazo[4,5-b]pyridin-2-one] |  | 6.49 | 
4 | COc1ccc(-c2cnc3[nH]c(=O)n(Cc4ccccc4C#N)c3c2)cc1C [Example 608, 2-[[6-(4-Methoxy-3-methyl-phenyl)-2-oxo-3H-imidazo[4,5-b]pyridin-1-yl]methyl]benzonitrile] | 1.02 |  | 
5 | CCC(O)Cn1c(=O)[nH]c2ncc(-c3ccc(F)cc3C)cc21 (single isomer, unassigned) [Example 44, (S*)-6-(4-Fluoro-2-methyl-phenyl)-1-(2-hydroxybutyl)-3H-imidazo[4,5-b]pyridin-2-one] |  |  | IC50 (HTS assay buffer (1.5 mM MgCl2 dye loading; 150 mM NaCl, 3 mM KCl assay buffer), human GluN1/GluN2B cells, read-out: NR2B IC50 (μM) HTS assay): 0.325 µM
6 | O=c1[nH]c2ncc(-c3cccc(C(F)(F)F)c3)cc2n1CC1CC1(F)F (racemic) [Example 225, (R/S)-1-[(2,2-Difluorocyclopropyl)methyl]-6-[3-(trifluoromethyl)phenyl]-3H-imidazo[4,5-b]pyridin-2-one] |  | 0.4 | 
7 | O=c1[nH]c2ncc(-c3cccc(C(F)(F)F)c3)cc2n1CC1CCO1 (racemic) [Example 216, (R/S)-1-(Oxetan-2-ylmethyl)-6-[3-(trifluoromethyl)phenyl]-3H-imidazo[4,5-b]pyridin-2-one] |  | 0.034 | 
8 | Cc1c(-c2cnc3c(c2)n(CC2CCO2)c(=O)n3C)cccc1C(F)(F)F (racemic) [Example 398, (R/S)-3-Methyl-6-[2-methyl-3-(trifluoromethyl)phenyl]-1-(oxetan-2-ylmethyl)imidazo[4,5-b]pyridin-2-one] | 2.84 |  | 
9 | COc1ccc(-c2cnc3[nH]c(=O)n(CC(C)C)c3c2)cc1 [Example 604, 1-Isobutyl-6-(4-methoxyphenyl)-3H-imidazo[4,5-b]pyridin-2-one] | 1.82 |  | 
10 | O=c1[nH]c2ncc(-c3cccc(C(F)(F)F)c3)cc2n1CC1CCO1 (single isomer, unassigned) [Example 223, (R*)-1-(Oxetan-2-ylmethyl)-6-[3-(trifluoromethyl)phenyl]-3H-imidazo[4,5-b]pyridin-2-one] |  | 0.036 | 
